Tests used:
[1] = test system: IL-1β production by BV-2 mouse microglial cells stimulated with LPS; assay: LPS-induced IL-1β production in BV-2 microglial cells; assay type: cell-based; details: BV-2 cells, LPS 100 ng/ml, 16 hrs, cell lysates, MSD assay
Protocol: (§1) BV-2 cells were treated with LPS (100 ng/ml) in the absence or presence of increasing concentrations of MW01-2-151WH or three structurally related analogs (MW01-3-202WH and MW01-3-173WH) for 16 hrs with levels of IL-1β and TNFα in cell lysates measured by the Meso-Scale Discovery electrochemiluminescent detection assay (See, e.g., Example 1, Materials and Methods). Data are the mean+/−SEM of triplicate determinations.
(§2) Biological investigations were done with compounds disclosed herein that were >95% homogenous as determined by HPLC/MS analysis. As part of a hierarchal, cell-based screening protocol, the compounds were screened for their ability to block IL-1β and TNFα production by BV-2 mouse microglial cells stimulated with LPS. The data for MWO1-2-1-151WH and the three structurally related analogs (MW01-3-202WH and MW01-3-173WH,) is shown (See, e.g., FIG. 2). Derivative groups that may be used to modify the compounds of the present invention can be found in U.S. Patent Application No. 20030176437 (herein incorporated by reference in its entirety for all purposes).
(§3) Cell Culture Assays. […] EL-1/3 and TNFa levels in cell lysates were determined by electro-chemiluminescent detection in a Meso-Scale Discovery (MSD) kit, as per the manufacturer's instructions.

[2] = test system: TNFα production by BV-2 mouse microglial cells stimulated with LPS; assay: LPS-induced TNFα production in BV-2 microglial cells; assay type: cell-based; details: BV-2 cells, LPS 100 ng/ml, 16 hrs, cell lysates, MSD assay
Protocol: as §1, §2, §3

[3] = test system: Accumulation of the NO metabolite, nitrite, BV-2 microglial cells; assay: Nitrite (NO metabolite) accumulation in BV-2 microglial cells; assay type: cell-based, mouse; details: BV-2 cells, concentrations up to 50 μM
Protocol: FIG. 4 A-C are graphs of the cell-based activity of MW01-2-151WH in BV-2 microglial cells. MW01-2-151WH is a concentration-dependent and selective inhibitor of proinflammatory cytokine production by activated glia. […] (C) Accumulation of the NO metabolite, nitrite, was not inhibited at concentrations up to 50 μM.

liver, lungs, and kidney = assay: Graded dose, acute toxicity assay (histology of liver, lung, kidney); assay type: in vivo; details: mice, oral gavage once daily for 3 days, up to 50 mg/kg
Protocol: Vehicle (panels A,C,E) or MW01-2-151 WH (panels B,D,F) was orally administered (gavage) to mice daily for three days at 50 mg/kg (20-fold greater than a therapeutic dose, described in Materials and Methods).
Graded dose, acute toxicity assays Vehicle (30% DMSO) or MW01-2-151WH (3.1, 12.5 or 50 mg/kg) in 0.5% carboxymethylcellulose was administered by oral gavage once daily for 3 days. On the 4th day, mice were anesthetized with pentobarbital, intubated and the lungs were inflated with an air containing syringe. The mice were perfused through the right ventricle and the lungs, liver and kidneys were then harvested and fixed in 4% paraformaldehyde for histology. Paraffin embedded hematoxylin & eosin stained sections of each organ were prepared by standard techniques.

[4] = test system: Aβ-induced neuroinflammation and synaptic damage; assay: Aβ1-42 ICV infusion mouse model, hippocampal endpoints; assay type: in vivo, C57B1/6 mice; details: mice infused ICV with Aβ1-42; […] per day i.p. for 14 days
Protocol: FIG. 3A-F are graphs of MW01-2-151WH suppression of Aβ-induced neuroinflammation and synaptic damage. Hippocampal sections or extracts from vehicle-infused mice (control), Aβ-infused mice injected with solvent, and Aβ-infused mice injected with MW01-2-151 WH were evaluated for neuroinflammation by measurement of the levels of the pro-inflammatory cytokines IL-1β (A), TNFα(B), and S100B (C), and the number of GFAP-positive astrocytes, (D) and F4/80-positive microglia, (E), and evaluated for synaptic damage by analysis of the levels of the postsynaptic density protein 95 (PSD-95) (F). Data are from one of two independent experiments, and are the mean±SEM for 4-5 mice per experimental group.
In vivo Assays. Aβ-42 infusions and treatment of C57B1/6 mice with MW01-2-151WH were performed as previously described. Briefly, oligomeric […] was infused ICV for 28 days with a micro-osmotic pump. At post-operative day 21 and continuing for 14 days thereafter, mice were injected intraperitoneally once daily with either MW01-2-151WH (2.5 mg/kg per day) or solvent control (10% DMSO in saline). At post-operative day 60, mice were perfused and sacrificed, and hippocampal endpoints measured as previously described. […]

Molecule	inhibition of LPS-induced IL-1β production [1]	inhibition of LPS-induced TNFα production [2]	inhibition of LPS-induced IL-1β production ([1]; listed as MW01-2-151 WH)	inhibition of LPS-induced TNFα production ([2]; listed as MW01-2-151 WH)	Accumulation of the NO metabolite, nitrite [3]	tissue toxicity (histology of liver, lung, kidney), acute (liver, lungs, and kidney)	tissue toxicity (histology of liver, lung, kidney), acute (liver, lungs, and kidney; listed as MW01-2-151 WH)	number of F4/80 positive microglia [4]
5,6-dihydro-3-(4-phenylpiperazin-1-yl)benzo[h]cinnoline [MW01-3-173WH]	somewhat less suppressive activity	somewhat less suppressive activity						
c1ccc(N2CCN(c3cc4c(nn3)-c3ccccc3CC4)CC2)nc1 [MW01-3-202WH, 5,6-dihydro-3-(4-(pyridm-2-yl)piperazin-1-yl)benzo[h]cinnoline]	somewhat less suppressive activity	somewhat less suppressive activity						
5,6-dihydro-3-(4-(pyrimidin-2-yl)piperazin-1-yl)benzo[h]cinnoline [MW01-2-151WH]	Concentration-dependent inhibition	Concentration-dependent inhibition	suppressed	suppressed	not inhibited	No tissue toxicity was observed	no histological evidence of toxicity	suppressed

Reference: US8063047B2, “Pyridazine compounds and methods” (Centre National de la Recherche Scientifique (CNRS), priority 2004, dated 2011)
